≈ marks a conversion by molar mass, not a printed value. Like-named read-outs stand apart in the source and are kept apart here. Starred links: 1 amine or outer side, 2 acyl side, 3 side chain; linkers in the order of their positions; H or OH if unused. Non-standard residues stand in square brackets, D forms with d. Residues, ends and D or L forms follow the SMILES beside them. Groups on a side chain read outwards from the residue. *: point of attachment. C18 diacid = O=C(O)CCCCCCCCCCCCCCCCC(=O)*; γGlu = O=C(O)[C@H](CCC(=O)[*:2])N[*:1]; Palmitoyl = CCCCCCCCCCCCCCCC(=O)*; AEEA = NCCOCCOCC(=O)O; Aib = CC(C)(N)C(=O)O
Columns and labels:
[1] = physchem; settings: pH 7.7, Solubility 80 mM AmeBicarb pH7.7
[2] = Solubility in buffer
[3] = molecular target: GLP-1R (Homo sapiens, UniProt P43220); assay: GLP-1 receptor-mediated cAMP induction, luciferase reporter gene antagonism assay; type: cell-based; design: host or cells: HEK 293; settings: antagonism of 0.05 nM GLP-1, HEK 293 cells
GLP-1R, sequence (P43220 24-463): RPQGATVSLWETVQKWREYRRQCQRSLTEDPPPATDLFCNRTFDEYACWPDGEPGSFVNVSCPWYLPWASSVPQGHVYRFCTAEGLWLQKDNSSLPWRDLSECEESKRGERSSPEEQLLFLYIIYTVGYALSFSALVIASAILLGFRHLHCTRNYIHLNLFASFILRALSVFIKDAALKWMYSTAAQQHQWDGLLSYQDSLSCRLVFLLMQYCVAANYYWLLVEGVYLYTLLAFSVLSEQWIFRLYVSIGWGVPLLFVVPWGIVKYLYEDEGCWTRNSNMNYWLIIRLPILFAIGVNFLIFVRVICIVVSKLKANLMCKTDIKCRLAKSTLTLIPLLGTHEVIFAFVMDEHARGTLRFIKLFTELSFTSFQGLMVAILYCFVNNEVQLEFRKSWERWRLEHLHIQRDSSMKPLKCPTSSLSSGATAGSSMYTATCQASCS
In short: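 HEK 293 cells cotransfected with human GLP-1 receptor and CRE-luciferase were serum-deprived 16 h, then given serial peptide dilutions followed by 0.05 nM GLP-1 and incubated 5 h at 37° C.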

[4] = 80 mM ammonium bicarbonate buffer, pH 7.7
[5] = 80 mM ammonium bicarbonate buffer, pH 7.7, Solubility [mg/mL] 80 mM AmBicarb pH7.7, Table 2, 80 mM AmBicarb pH7.7
[6] = Table 2, C16 linker variants of 9-40amide Jant4 K40[X], read-out: Biactivity IC50
[7] = Table 3, amino acid substitution variants of Jant4-K40, read-out: Bioactivity IC50
[8] = PBS, pH 7.7, Solubility [mg/mL] PBS pH7.7, Table 4, PBS pH7.7
[9] = Table 4, Aib variants of 9-40am Jant4 K40[C16], read-out: Bioactivity IC50

CCCCCCCCCCCCCCCC(=O)N[C@@H](CCC(=O)NCCOCCOCC(=O)NCCCC[C@H](NC(=O)[C@H](CO)NC(=O)[C@@H]1CCCN1C(=O)[C@@H]1CCCN1C(=O)[C@@H]1CCCN1C(=O)[C@H](C)NC(=O)CNC(=O)[C@H](CO)NC(=O)[C@H](CO)NC(=O)[C@@H]1CCCN1C(=O)CNC(=O)CNC(=O)[C@@H](NC(=O)[C@H](CCCNC(=N)N)NC(=O)[C@H](CC(C)C)NC(=O)[C@H](Cc1c[nH]c2ccccc12)NC(=O)[C@H](CCC(=O)O)NC(=O)[C@@H](NC(=O)[C@H](Cc1ccccc1)NC(=O)[C@H](CCC(=O)O)NC(=O)[C@H](CCCNC(=N)N)NC(=O)[C@@H](NC(=O)[C@H](C)NC(=O)[C@H](CCC(N)=O)NC(=O)[C@H](CCC(=O)O)NC(=O)[C@H](CCC(=O)O)NC(=O)[C@H](CC(C)C)NC(=O)[C@H](Cc1ccc(O)cc1)NC(=O)[C@H](CO)NC(=O)[C@H](CO)NC(=O)[C@@H](NC(=O)[C@@H](N)CC(=O)O)C(C)C)C(C)C)[C@@H](C)CC)C(C)C)C(=O)O)C(=O)O [compound 79]
solubility [1]: > 20000 µg/mL

CCCCCCCCCCCCCCCC(=O)NCCCC[C@H](NC(=O)[C@H](CO)NC(=O)[C@@H]1CCCN1C(=O)[C@@H]1CCCN1C(=O)[C@@H]1CCCN1C(=O)[C@H](C)NC(=O)CNC(=O)[C@H](CO)NC(=O)[C@H](CO)NC(=O)[C@@H]1CCCN1C(=O)CNC(=O)CNC(=O)[C@H](CCCCN)NC(=O)[C@@H](NC(=O)[C@H](CC(C)C)NC(=O)[C@H](Cc1c[nH]c2ccccc12)NC(=O)[C@H](C)NC(=O)[C@@H](NC(=O)[C@H](Cc1ccccc1)NC(=O)[C@@H](CCC(=O)O)NC(=O)[C@H](CCCNC(=N)N)NC(=O)[C@@H](NC(=O)[C@H](C)NC(=O)[C@H](CCC(N)=O)NC(=O)[C@H](CCC(=O)O)NC(=O)[C@H](CCC(=O)O)NC(=O)[C@H](CC(C)C)NC(=O)[C@H](Cc1ccc(O)cc1)NC(=O)[C@H](CO)NC(=O)[C@H](CO)NC(=O)[C@@H](NC(=O)[C@@H](N)CC(=O)O)C(C)C)C(C)C)[C@@H](C)CC)C(C)C)C(N)=O [compound 88] (H-DVSSYLEEQAVR[dE]FIAWLVKGGPSSGAPPPSK(Palmitoyl)-NH2)
solubility [2, 4]: 1700 µg/mL (≈ 467 µM) | IC50 ([3]; Table 5, d-AA variants of 9-40am Jant4 K40[C16], read-out: Bioactivity KC50): 27 nM

CC[C@H](C)[C@H](NC(=O)[C@H](Cc1ccccc1)NC(=O)[C@H](CCC(=O)O)NC(=O)[C@H](CCCNC(=N)N)NC(=O)[C@@H](NC(=O)[C@H](C)NC(=O)[C@H](CCC(N)=O)NC(=O)[C@H](CCC(=O)O)NC(=O)[C@H](CCC(=O)O)NC(=O)[C@H](CC(C)C)NC(=O)[C@H](Cc1ccc(O)cc1)NC(=O)[C@H](CO)NC(=O)[C@H](CO)NC(=O)[C@@H](NC(=O)[C@@H](N)CC(=O)O)C(C)C)C(C)C)C(=O)N[C@@H](C)C(=O)N[C@@H](Cc1c[nH]c2ccccc12)C(=O)N[C@@H](CC(C)C)C(=O)N[C@H](C(=O)N[C@@H](CCCCN)C(=O)NCC(=O)NCC(=O)N1CCC[C@H]1C(=O)N[C@@H](CO)C(=O)N[C@@H](CO)C(=O)NCC(=O)N[C@@H](C)C(=O)N1CCC[C@H]1C(=O)N1CCC[C@H]1C(=O)N1CCC[C@H]1C(=O)N[C@@H](CO)C(=O)N[C@@H](CCCCNC(=O)CCCCCCCCCCCCCCCCC(=O)O)C(N)=O)C(C)C [compound 63] (H-DVSSYLEEQAVREFIAWLVKGGPSSGAPPPSK(C18 diacid)-NH2; N-terminus assumed)
solubility [2, 5]: > 25000 µg/mL | IC50 [3, 6]: 114 nM

CCCCCCCCCCCCCCCC(=O)NCCCC[C@H](NC(=O)[C@H](CO)NC(=O)[C@@H]1CCCN1C(=O)[C@@H]1CCCN1C(=O)[C@@H]1CCCN1C(=O)[C@H](C)NC(=O)CNC(=O)[C@H](CO)NC(=O)[C@H](CO)NC(=O)[C@@H]1CCCN1C(=O)CNC(=O)CNC(=O)[C@H](CCCNC(=N)N)NC(=O)[C@@H](NC(=O)[C@H](CC(C)C)NC(=O)[C@H](Cc1c[nH]c2ccccc12)NC(=O)[C@H](CCC(=O)O)NC(=O)[C@@H](NC(=O)[C@H](Cc1ccccc1)NC(=O)[C@H](CCC(=O)O)NC(=O)[C@H](CCCNC(=N)N)NC(=O)[C@@H](NC(=O)[C@H](C)NC(=O)[C@H](CCC(=O)O)NC(=O)[C@H](CCC(=O)O)NC(=O)[C@H](CCC(=O)O)NC(=O)[C@H](CC(C)C)NC(=O)[C@H](Cc1ccc(O)cc1)NC(=O)[C@H](CCCNC(=N)N)NC(=O)[C@H](CO)NC(=O)[C@@H](NC(=O)[C@@H](N)CC(=O)O)C(C)C)C(C)C)[C@@H](C)CC)C(C)C)C(N)=O [compound 75] (H-DVSRYLEEEAVREFIEWLVRGGPSSGAPPPSK(Palmitoyl)-NH2; N-terminus assumed)
solubility [2, 4]: 18600 µg/mL (≈ 4900 µM) | IC50 [3, 7]: 19 nM

CCCCCCCCCCCCCCCC(=O)NCCCC[C@H](NC(=O)[C@H](CO)NC(=O)[C@@H]1CCCN1C(=O)[C@@H]1CCCN1C(=O)[C@@H]1CCCN1C(=O)[C@H](C)NC(=O)CNC(=O)[C@H](CO)NC(=O)[C@H](CO)NC(=O)[C@@H]1CCCN1C(=O)CNC(=O)CNC(=O)[C@H](CCCCN)NC(=O)[C@@H](NC(=O)[C@H](CC(C)C)NC(=O)[C@H](Cc1c[nH]c2ccccc12)NC(=O)[C@H](C)NC(=O)[C@@H](NC(=O)[C@H](Cc1ccccc1)NC(=O)[C@H](CCC(=O)O)NC(=O)[C@H](CCCNC(=N)N)NC(=O)C(C)(C)NC(=O)[C@H](C)NC(=O)[C@H](CCC(N)=O)NC(=O)[C@H](CCC(=O)O)NC(=O)[C@H](CCC(=O)O)NC(=O)[C@H](CC(C)C)NC(=O)[C@H](Cc1ccc(O)cc1)NC(=O)[C@H](CO)NC(=O)[C@H](CO)NC(=O)[C@@H](NC(=O)[C@@H](N)CC(=O)O)C(C)C)[C@@H](C)CC)C(C)C)C(N)=O [compound 45] (H-DVSSYLEEQA[Aib]REFIAWLVKGGPSSGAPPPSK(Palmitoyl)-NH2; N-terminus assumed)
solubility [2, 4]: 11100 µg/mL (≈ 3060 µM) | solubility [2, 8]: 400 µg/mL (≈ 110 µM) | IC50 [3, 9]: 8 nM

CC[C@H](C)[C@H](NC(=O)[C@H](Cc1ccccc1)NC(=O)[C@H](CCC(=O)O)NC(=O)[C@H](CCCNC(=N)N)NC(=O)[C@@H](NC(=O)[C@H](C)NC(=O)[C@H](CCC(N)=O)NC(=O)[C@H](CCC(=O)O)NC(=O)[C@H](CCC(=O)O)NC(=O)[C@H](CC(C)C)NC(=O)[C@H](Cc1ccc(O)cc1)NC(=O)[C@H](CO)NC(=O)[C@H](CO)NC(=O)[C@@H](NC(=O)[C@@H](N)CC(=O)O)C(C)C)C(C)C)C(=O)N[C@@H](C)C(=O)N[C@@H](Cc1c[nH]c2ccccc12)C(=O)N[C@@H](CC(C)C)C(=O)N[C@H](C(=O)N[C@@H](CCCCN)C(=O)NCC(=O)NCC(=O)N1CCC[C@H]1C(=O)N[C@@H](CO)C(=O)N[C@@H](CO)C(=O)NCC(=O)N[C@@H](C)C(=O)N1CCC[C@H]1C(=O)N1CCC[C@H]1C(=O)N1CCC[C@H]1C(=O)N[C@@H](CO)C(=O)N[C@@H](CCCCNC(=O)COCCOCCNC(=O)CC[C@H](NC(=O)CCCCCCCCCCCCCCCCC(=O)O)C(=O)O)C(N)=O)C(C)C [compound 68] (H-DVSSYLEEQAVREFIAWLVKGGPSSGAPPPSK([AEEA-γGlu-C18 diacid])-NH2; N-terminus assumed)
solubility [2, 5]: > 25000 µg/mL | IC50 [3, 6]: 718 nM

CCCCCCCCCCCCCCCC(=O)NCCCC[C@H](NC(=O)[C@H](CO)NC(=O)[C@@H]1CCCN1C(=O)[C@@H]1CCCN1C(=O)[C@@H]1CCCN1C(=O)[C@H](C)NC(=O)CNC(=O)[C@H](CO)NC(=O)[C@H](CO)NC(=O)[C@@H]1CCCN1C(=O)CNC(=O)CNC(=O)[C@H](CCCNC(=N)N)NC(=O)[C@@H](NC(=O)[C@H](CC(C)C)NC(=O)[C@H](Cc1c[nH]c2ccccc12)NC(=O)[C@H](C)NC(=O)[C@@H](NC(=O)[C@H](Cc1ccccc1)NC(=O)[C@H](CCC(=O)O)NC(=O)[C@H](CCCNC(=N)N)NC(=O)[C@@H](NC(=O)[C@H](C)NC(=O)[C@H](CCC(=O)O)NC(=O)[C@H](CCC(=O)O)NC(=O)[C@H](CCC(=O)O)NC(=O)[C@H](CC(C)C)NC(=O)[C@H](Cc1ccc(O)cc1)NC(=O)[C@H](CO)NC(=O)[C@H](CO)NC(=O)[C@@H](NC(=O)[C@@H](N)CC(=O)O)C(C)C)C(C)C)[C@@H](C)CC)C(C)C)C(N)=O [compound 71] (H-DVSSYLEEEAVREFIAWLVRGGPSSGAPPPSK(Palmitoyl)-NH2; N-terminus assumed)
solubility [2, 4]: > 20000 µg/mL | IC50 [3, 7]: 18 nM

CCCCCCCCCCCCCCCC(=O)NCCCC[C@H](NC(=O)[C@H](CO)NC(=O)[C@@H]1CCCN1C(=O)[C@@H]1CCCN1C(=O)[C@@H]1CCCN1C(=O)[C@H](C)NC(=O)CNC(=O)[C@H](CO)NC(=O)[C@H](CO)NC(=O)[C@@H]1CCCN1C(=O)CNC(=O)CNC(=O)[C@H](CCCCN)NC(=O)[C@@H](NC(=O)[C@H](CC(C)C)NC(=O)[C@H](Cc1c[nH]c2ccccc12)NC(=O)[C@H](C)NC(=O)[C@@H](NC(=O)[C@H](Cc1ccccc1)NC(=O)[C@H](CCC(=O)O)NC(=O)[C@H](CCCNC(=N)N)NC(=O)[C@@H](NC(=O)[C@H](C)NC(=O)[C@H](CCC(N)=O)NC(=O)C(C)(C)NC(=O)[C@H](CCC(=O)O)NC(=O)[C@H](CC(C)C)NC(=O)[C@H](Cc1ccc(O)cc1)NC(=O)[C@H](CO)NC(=O)[C@H](CO)NC(=O)[C@@H](NC(=O)[C@@H](N)CC(=O)O)C(C)C)C(C)C)[C@@H](C)CC)C(C)C)C(N)=O [compound 84] (H-DVSSYLE[Aib]QAVREFIAWLVKGGPSSGAPPPSK(Palmitoyl)-NH2)
solubility [2, 4]: 5200 µg/mL (≈ 1450 µM) | solubility [2, 8]: 200 µg/mL (≈ 55.6 µM) | IC50 [3, 9]: 30 nM

Reference: patent publication US20240058422A1, “GLUCAGON-LIKE PEPTIDE-1 RECEPTOR ANTAGONISTS” (INDIANA UNIVERSITY RESEARCH AND TECHNOLOGY CORPORATION, priority 2022, published 2024)
